Measurements: article PMC6445163, “Design, synthesis, and evaluation of novel 2-phenylpropionic acid derivatives as dual COX inhibitory-antibacterial agents” (Journal of Enzyme Inhibition and Medicinal Chemistry, 2017)
pKi: −log10 of the molar value. ≈ marks a conversion by molar mass, not a printed value. Marks after values point to notes of the source that are not given here.

How the values were obtained:
COX-1 = target: T1, COX-1 (Ovis aries, UniProt P05979); assay: enzyme kinetics (Lineweaver-Burk), arachidonic acid substrate; type: biochemical; conditions: for mode of inhibition: Lineweaver-Burk plot analysis; for pKi: secondary plot of slope versus inhibitor concentration, read-out: Ki (steady-state inhibition constant)
T1 construct: purchased Biovision K548-100
T1 sequence (P05979 25-600): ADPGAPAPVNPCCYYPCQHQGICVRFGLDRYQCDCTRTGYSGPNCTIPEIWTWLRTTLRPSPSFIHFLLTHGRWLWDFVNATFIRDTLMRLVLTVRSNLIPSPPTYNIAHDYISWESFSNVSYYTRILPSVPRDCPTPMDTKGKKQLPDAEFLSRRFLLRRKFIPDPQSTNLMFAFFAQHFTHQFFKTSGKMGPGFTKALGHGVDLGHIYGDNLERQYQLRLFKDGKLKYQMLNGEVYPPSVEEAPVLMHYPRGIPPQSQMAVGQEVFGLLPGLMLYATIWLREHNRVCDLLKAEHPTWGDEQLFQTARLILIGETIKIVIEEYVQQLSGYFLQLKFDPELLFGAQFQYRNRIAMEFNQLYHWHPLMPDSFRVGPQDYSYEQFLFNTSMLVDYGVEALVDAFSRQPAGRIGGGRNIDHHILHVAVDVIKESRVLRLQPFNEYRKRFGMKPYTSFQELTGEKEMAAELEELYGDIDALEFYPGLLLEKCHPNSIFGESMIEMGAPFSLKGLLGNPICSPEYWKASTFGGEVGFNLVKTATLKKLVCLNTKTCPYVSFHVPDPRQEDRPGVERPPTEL
Experimental: The mode of inhibition was determined by following the Lineweaver–Burk double reciprocal plot analysis of the data and calculated as per the Michaelis–Menten kinetics. To understand the possible mode of action, Km and Vmax were also calculated. The slopes of the Lineweaver–Burk plots were plotted versus the inhibitor concentration, and the Ki values were determined from the x-axis intercept as inhibition constant − Ki. […] The kinetic parameters of this study were determined based on Michaelis–Menten equation followed by a Lineweaver–Burk double reciprocal analysis of data set regarding […] versus 1/[S] plot.

[1] = test system: Candida albicans (ATCC 24433); assay: broth dilution MIC (EUCAST EDef 7.1), resazurin; type: cell-based; conditions: ATCC24433, 24 h
Experimental: (§1) Microbiological studies were performed according to following guides: CLSI reference […]-A9 broth microdilution method[49] for bacterial strains and EUCAST definitive (EDef 7.1) method[50] for Candida species. Synthesized compounds were tested for their in vitro growth inhibitory activity against Staphylococcus aureus (ATCC 25923), Enterococcus faecalis (ATCC 29212), Listeria monocytogenes (ATCC 1911), Klebsiella pneumoniae (NCTC 9633), Escherichia coli (ATCC 35218), E. coli (ATCC 25922) Candida albicans (ATCC 24433) Candida krusei (ATCC 6258) and Candida parapsilosis (ATCC 22019). Chloramphenicol and ketoconazole were used as control drugs. The cultures were obtained from the Mueller-Hinton broth (Difco) for the bacterial strains after overnight incubation at 37 °C. The yeasts were maintained in Roswell Park Memorial Institute (RPMI) after overnight incubation at 37 °C. […] Testing was carried out in Mueller-Hinton broth and RPMI at pH =7, and the two-fold serial dilutions technique was applied. The last well on the microplates containing only inoculated broth was kept as controls and the last well with no growth of microorganism was recorded to represent the minimum inhibitory concentration (MIC) expressed in μg/mL. For both the antibacterial and antifungal assays, the compounds were dissolved in DMSO. […] The completed plates were incubated for 24 h. At the end of the incubation, resazurin (20 μg/mL) was added into each well and plates were incubated for 2 h. MIC values were determined using a microplate reader at […]. Synthesized compounds (6a-6m) were evaluated for antimicrobial activity against various microorganisms such as Staphylococcus aureus (ATCC 25923), Enterococcus faecalis (ATCC 29212), Listeria monocytogenes (ATCC 1911), Klebsiella pneumoniae (NCTC 9633), Escherichia coli (ATCC 35218), E. coli (ATCC 25922)Candida albicans (ATCC 24433) Candida krusei (ATCC 6258) and Candida parapsilosis (ATCC 22019). […] Chloramphenicol and ketoconazole were used as standard drugs in the activity test. […] Besides, the compounds 6d, 6h, 6l and 6m indicated stronger antibacterial activity than the other compounds in the series.

[2] = test system: Candida krusei (ATCC 6258); assay: broth dilution MIC (EUCAST EDef 7.1), resazurin; type: cell-based; conditions: Pichia kudriavzevii, ATCC6258, 24 h
Experimental: as §1

[3] = test system: Candida parapsilosis (ATCC 22019); assay: broth dilution MIC (EUCAST EDef 7.1), resazurin; type: cell-based; conditions: ATCC22019, 24 h
Experimental: as §1

[4] = test system: Salmonella typhimurium TA100 (base-pair substitutions); assay: Ames MPF mutagenicity assay, TA100; type: cell-based; conditions: for mutagenicity classification against TA100: presence or absence of metabolic activation (S9)
Experimental: Salmonella typhimurium strains, TA98 (frameshift mutations) and TA100 (base-pair substitutions), are used in this assay. Concentration range of the compounds was between […] and 5000 µg/mL according to the previous guidelines. Compounds were prepared in six different concentrations (5, 2.5, 1.25, 0.625, 0.3125 and 0.156 mg/mL) in DMSO. Mutagenic potential was determined in absence and presence of Aroclor™-1254 induced male Sprague–Dawley rat liver microsomal enzyme (S9) mix (Xenometrix AG, Switzerland). Positive controls without S9 mix were 2-Nitrofluorene (2 µg/mL) and 4-nitroquinoline N-oxide (0.1 µg/mL) whereas 1 and 2.5 µg/mL of 2-aminoanthracene solutions were used as positive controls with S9 against TA 98 and TA100, respectively. Solvent control was prepared with 4% DMSO. At the end of the experiment, revertant bacteria dropped the pH of solution and indicator medium color was changed to yellow. Yellow wells were counted as positive and compared with the negative control. Fold induction over the negative control and fold induction over the baseline were calculated. Fold induction over the negative control is the ratio of the mean number of positive wells for the dose concentration divided by the mean number of positive wells for the zero dose (negative) control. Fold induction over the baseline is the ratio of the mean number of positive wells for the dose concentration divided by zero dose baseline. The zero dose baseline is obtained by adding one standard deviation to the mean number of positive wells of the zero dose control. Mutagenicity was determined according to the criteria from previous studies[52]^,[56]. For a value ≤3 and significant increases between two and three-fold the baselines were classified as a weak mutagen, and increases ≥ three-fold the baselines were classified as a mutagen. […] As a rule, at least two adjacent doses with significant increases or a significant increase at the highest dose level should be observed for a mutagenic compound. All doses were compared according to Student’s t-test at p < .05 for statistical significance.
Ames assay was performed to investigate the genotoxicity of compounds 6h and 6l.

| Structure (SMILES) | Vmax value of the competitive inhibition (COX-1) | mode of inhibition (COX-1) | pKi (COX-1) | MIC [1] | MIC [2] | MIC [3] | Revertants fold increase (over baseline) TA 100 S9+ ([4]; 0.156 mg/mL) | Revertants fold increase (over baseline) TA 100 S9+ ([4]; 0.3125 mg/mL) | Revertants fold increase (over baseline) TA 100 S9− ([4]; 0.3125 mg/mL) | Revertants fold increase (over baseline) TA 100 S9+ ([4]; 0.625 mg/mL) | Revertants fold increase (over baseline) TA 100 S9− ([4]; 0.625 mg/mL) | Revertants fold increase (over baseline) TA 100 S9+ ([4]; 1.25 mg/mL) | Revertants fold increase (over baseline) TA 100 S9− ([4]; 1.25 mg/mL) | Revertants fold increase (over baseline) TA 100 S9+ ([4]; 2.5 mg/mL) | Revertants fold increase (over baseline) TA 100 S9− ([4]; 2.5 mg/mL) | Revertants fold increase (over baseline) TA 100 S9+ ([4]; 5 mg/mL) | Revertants fold increase (over baseline) TA 100 S9− ([4]; 5 mg/mL) | mutagenicity classification against TA100 [4] | Revertants fold increase (over baseline) TA 100 S9− ([4]; 0.156 mg/mL) |
| --- | --- | --- | --- | --- | --- | --- | --- | --- | --- | --- | --- | --- | --- | --- | --- | --- | --- | --- | --- |
| COc1ccc2sc(SCc3ccc(C(C)C(=O)O)cc3)nc2c1 (stereo not shown) [Compound 6h, 2-(4-(((5-Methoxybenzo[d]thiazol-2-yl)thio)methyl)phenyl)propanoic acid] | 0.830 ± 0.011 nmol/min/mg protein | competitive | 5.68 | 50 µg/mL (≈ 139 µM) | 100 µg/mL (≈ 278 µM) | 50 µg/mL (≈ 139 µM) | 0.60 | 0.50 | 0.52 | 0.20 | 0.70 | 0.25 | 0.17 | 0.25 | 1.05 | 0.20 | 0.87 | did not show any mutagenicity |  |
| COc1ccc2[nH]c(SCc3ccc(C(C)C(=O)O)cc3)nc2c1 (stereo not shown) [Compound 6l, 2-(4-(((5-Methoxy-1H-benzo[d]imidazol-2-yl)thio)methyl)phenyl)propanoic acid] | 0.669 ± 0.003 nmol/min/mg protein | competitive | 5.77 | 50 µg/mL (≈ 146 µM) | 50 µg/mL (≈ 146 µM) | 50 µg/mL (≈ 146 µM) | 0.74 | 0.52 | 0.27^a | 0.52 | 0.13^a | 0.00^a | 0.13^a | 0.00^a | 0.20^a | 0.00^a | 0.00^a | non-mutagenic | 0.53a |
